Data reported in patent US10865191B2, “Heterocyclic compounds useful as modulators of TNF alpha” (BRISTOL-MYERS SQUIBB COMPANY, priority 2015, dated 2020).

target: TNFα (Homo sapiens, UniProt P01375); experiment: TNF induced HEK-Blue assay (NF-kB-driven secreted alkaline phosphatase reporter); assay type: cell-based; settings: TNF induced HEK-Blue assay IC50 value, TNFα 0.5 ng/mL, HEK-Blue-CD40L cells, 18 h
How it was run: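 HEK-Blue-CD40L cells (NF-kB-driven SEAP reporter), 20,000/well, added after 30 min pre-incubation of compound (0.004–25 μM final) with TNFα 0.5 ng/mL final at 37 °C; 18 h incubation. SEAP read with QUANTI-Blue at 620 nm; IC50 from 4-parameter logistic fit, normalized to unstimulated and stimulated DMSO controls.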

TNFα, sequence (P01375 77-233 limits assumed): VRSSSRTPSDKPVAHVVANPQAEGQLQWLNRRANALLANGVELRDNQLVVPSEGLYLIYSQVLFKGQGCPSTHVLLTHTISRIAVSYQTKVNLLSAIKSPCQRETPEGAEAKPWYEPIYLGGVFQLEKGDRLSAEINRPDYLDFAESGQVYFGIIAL

IC50 [nM]	Compound
< 1000	C[C@@H](Nc1c(Cl)cnc2ccc(-c3cnc(C(C)(C)O)nc3)cc12)c1cc(C#N)ccc1F [Example 376, (R)-3-(1-((3-chloro-6-(2-(2-hydroxypropan-2-yl)pyrimidin-5-yl)quinolin-4-yl)amino)ethyl)-4-fluorobenzonitrile]
< 1000	C[C@@H](Nc1c(Cl)cnc2ccc(-c3cnc(N4CCN(CC(N)=O)CC4)nc3)cc12)c1ccccc1F [Example 90, (R)-2-(4-(5-(3-chloro-4-((1-(2-fluorophenyl)ethyl)amino)quinolin-6-yl)pyrimidin-2-yl)piperazin-1-yl)acetamide]

same assay, conditions: TNFα 0.5 ng/mL, HEK-Blue-CD40L cells, 18 h; read-out: TNF induced HEK-Blue assay IC50 value

IC50 [nM]	Compound
< 1000	C=Cc1ccc(F)c([C@@H](C)Nc2c(Cl)c(C)nc3ccc(-c4cnc(C(C)(C)O)nc4)cc23)c1 [Example 330, (R)-2-(5-(3-chloro-4-((1-(2-fluoro-5-vinylphenyl)ethyl)amino)-2-methylquinolin-6-yl)pyrimidin-2-yl)propan-2-ol]
1000 to 10000	C[C@@H](Nc1c(Cl)cnc2ccc(-c3cnc(C(C)(C)O)nc3)cc12)c1cccc(N2CCCC2=O)c1 [Example 363, (R)-1-(3-(1-((3-chloro-6-(2-(2-hydroxypropan-2-yl)pyrimidin-5-yl)quinolin-4-yl)amino)ethyl)phenyl)pyrrolidin-2-one]
< 1000	C[C@@H](Nc1c(Cl)cnc2ccc(Br)cc12)c1cc(-c2cncnc2)ccc1F [Example 532, (R)-6-bromo-3-chloro-N-(1-(2-fluoro-5-(pyrimidin-5-yl)phenyl)ethyl)quinolin-4-amine]
< 1000	C[C@@H](Nc1c(Cl)cnc2ccc(-c3ccc(C4(N)CC(O)C4)cc3)cc12)c1ccccc1F (mixture of isomers) [Example 119, (R)-3-amino-3-(4-(3-chloro-4-((1-(2-fluorophenyl)ethyl)amino)quinolin-6-yl)phenyl)cyclobutan-1-ol]
< 1000	CC(C)(O)c1ncc(-c2ccc3ncc(Cl)c(NC4(c5ccccc5F)CC4)c3c2)cn1 [Example 158, 2-(5-(3-chloro-4-((1-(2-fluorophenyl)cyclopropyl)amino)quinolin-6-yl)pyrimidin-2-yl)propan-2-ol]
10000 to 25000	Fc1ccc(Br)cc1CNc1c(Cl)cnc2ccccc12 [Example 516, N-(5-bromo-2-fluorobenzyl)-3-chloroquinolin-4-amine]
< 1000	Cc1nc2ccc(-c3cnc(C(C)(C)O)nc3)cc2c(N[C@H](C)c2cc(-c3cnn(C)c3)ccc2F)c1Cl [Example 344, (R)-2-(5-(3-chloro-4-((1-(2-fluoro-5-(1-methyl-1H-pyrazol-4-yl)phenyl)ethyl)amino)-2-methylquinolin-6-yl)pyrimidin-2-yl)propan-2-ol]
< 1000	O=C(O)CC1CCN(c2ncc(-c3ccc4ncc(Cl)c(N[C@@H](c5ccccc5F)C(F)F)c4c3)cn2)CC1 [Example 78, (S)-2-(1-(5-(3-chloro-4-((2,2-difluoro-1-(2-fluorophenyl)ethyl)amino)quinolin-6-yl)pyrimidin-2-yl)piperidin-4-yl)acetic acid]
< 1000	CCC(Nc1c(Cl)cnc2ccc(-c3cnc(C(C)(C)O)nc3)cc12)c1nc(CO)ccc1F (stereo not shown) [Example 130, 2-(5-(3-chloro-4-((1-(3-fluoro-6-(hydroxymethyl)pyridin-2-yl)propyl)amino)quinolin-6-yl)pyrimidin-2-yl)propan-2-ol]
< 1000	C[C@@H](Nc1c(Cl)cnc2ccc(-c3cnc(C(C)(C)O)nc3)cc12)c1cc(-c2ccc(N)nc2)ccc1F [Example 348, (R)-2-(5-(4-((1-(5-(6-aminopyridin-3-yl)-2-fluorophenyl)ethyl)amino)-3-chloroquinolin-6-yl)pyrimidin-2-yl)propan-2-ol]
< 1000	Cc1nc2ccc(-c3cnc(C(C)(C)O)nc3)cc2c(N[C@@H](c2cc(Br)ccc2F)C(F)F)c1Cl [Example 320, (S)-2-(5-(4-((1-(5-bromo-2-fluorophenyl)-2,2-difluoroethyl)amino)-3-chloro-2-methylquinolin-6-yl)pyrimidin-2-yl)propan-2-ol]
1000 to 10000	C[C@@H](Nc1c(Cl)cnc2ccccc12)c1cc(-c2cnc(N(C)C)nc2)ccc1F [Example 536, (R)-3-chloro-N-(1-(5-(2-(dimethylamino)pyrimidin-5-yl)-2-fluorophenyl)ethyl)quinolin-4-amine]
10000 to 25000	CC(C)(O)c1ncc(-c2ccc3ncc(Cl)c(NC(C)(C)c4cccc(C(F)(F)F)c4)c3c2)cn1 [Example 182, 2-(5-(3-chloro-4-((2-(3-(trifluoromethyl)phenyl)propan-2-yl)amino)quinolin-6-yl)pyrimidin-2-yl)propan-2-ol]
1000 to 10000	CC(Nc1c(Cl)cnc2ccc(-c3cnc(N4CCNC(=O)C4)nc3)cc12)c1nc(C(=O)Nc2ccccc2)ccc1F (racemic) [Example 38, 6-(1-((3-chloro-6-(2-(3-oxopiperazin-1-yl)pyrimidin-5-yl)quinolin-4-yl)amino)ethyl)-5-fluoro-N-phenylpicolinamide]
1000 to 10000	Cc1nc2cc(F)c(-c3cnc(N4CCNC(=O)C4)nc3)cc2c(N[C@H](C)c2cc(Br)ccc2F)c1Cl [Example 560, (R)-4-(5-(4-((1-(5-bromo-2-fluorophenyl)ethyl)amino)-3-chloro-7-fluoro-2-methylquinolin-6-yl)pyrimidin-2-yl)piperazin-2-one]
1000 to 10000	Cc1ccc(C)c(Nc2c(Cl)c(C)nc3ccc(-c4ccc(CN5CCN(C(=O)OC(C)(C)C)CC5)cc4)cc23)c1 [Example 6, tert-butyl 4-(4-(3-chloro-4-((2,5-dimethylphenyl)amino)-2-methylquinolin-6-yl)benzyl)piperazine-1-carboxylate]
< 1000	C[C@@H](Nc1c(Cl)cnc2ccc(-c3ccc(N4CCN[C@H](CO)C4)nc3)cc12)c1ccccc1F [Example 84, ((S)-4-(5-(3-chloro-4-(((R)-1-(2-fluorophenyl)ethyl)amino)quinolin-6-yl)pyridin-2-yl)piperazin-2-yl)methanol]
< 1000	Cc1nc2c(F)cc(-c3cnc(C(C)(C)O)nc3)cc2c(N[C@H](C)c2cc(C(N)=O)ccc2F)c1Cl [Example 303, (R)-3-(1-((3-chloro-8-fluoro-6-(2-(2-hydroxypropan-2-yl)pyrimidin-5-yl)-2-methylquinolin-4-yl)amino)ethyl)-4-fluorobenzamide]
1000 to 10000	C[C@@H](Nc1c(Cl)cnc2ccccc12)c1cc(-c2cc3ccccc3[nH]2)ccc1F [Example 528, (R)-3-chloro-N-(1-(2-fluoro-5-(1H-indol-2-yl)phenyl)ethyl)quinolin-4-amine]
< 1000	C[C@@H](Nc1c(Cl)cnc2ccc(-c3cnc(C(C)(C)O)nc3)cc12)c1cc(C2=CCNCC2)ccc1F [Example 338, (R)-2-(5-(3-chloro-4-((1-(2-fluoro-5-(1,2,3,6-tetrahydropyridin-4-yl)phenyl)ethyl)amino)quinolin-6-yl)pyrimidin-2-yl)propan-2-ol]
< 1000	CC(Nc1c(Cl)cnc2ccc(-c3ccc(C(C)(C)O)cc3)cc12)c1cscn1 (racemic) [Example 202, 2-(4-(3-chloro-4-((1-(thiazol-4-yl)ethyl)amino)quinolin-6-yl)phenyl)propan-2-ol]
< 1000	Cc1nc2ccc(-c3cnc(C(C)(C)O)nc3)cc2c(N[C@@H](c2cc(C#N)ccc2F)C(F)F)c1Cl [Example 380, (S)-3-(1-((3-chloro-6-(2-(2-hydroxypropan-2-yl)pyrimidin-5-yl)-2-methylquinolin-4-yl)amino)-2,2-difluoroethyl)-4-fluorobenzonitrile]
< 1000	CC(Nc1c(Cl)cnc2cc(F)c(-c3cnc(C(O)CO)nc3)cc12)c1ccccc1F (single isomer, unassigned) [Example 596, 1-(5-(3-chloro-7-fluoro-4-((1-(2-fluorophenyl)ethyl)amino)quinolin-6-yl)pyrimidin-2-yl)ethane-1,2-diol]
< 1000	Cc1nc2ccc(-c3cnc(C(C)(C)O)nc3)cc2c(N[C@H](C)c2cc(C#N)ccc2F)c1Cl [Example 375, (R)-3-(1-((3-chloro-6-(2-(2-hydroxypropan-2-yl)pyrimidin-5-yl)-2-methylquinolin-4-yl)amino)ethyl)-4-fluorobenzonitrile]
< 1000	C[C@@H](Nc1c(Cl)cnc2ccc(-c3cnc(C(C)(C)O)nc3)cc12)c1cc(-c2cnn(C)c2)ccc1F [Example 339, (R)-2-(5-(3-chloro-4-((1-(2-fluoro-5-(1-methyl-1H-pyrazol-4-yl)phenyl)ethyl)amino)quinolin-6-yl)pyrimidin-2-yl)propan-2-ol]
< 1000	CC(C)(O)c1ncc(-c2nc3c(N[C@H](c4cc(C(O)CO)ccc4F)C(F)F)c(Cl)cnc3cc2F)cn1 (stereo partly drawn) [Example 488, 1-(3-((R)-1-((3-chloro-7-fluoro-6-(2-(2-hydroxypropan-2-yl)pyrimidin-5-yl)-1,5-naphthyridin-4-yl)amino)-2,2-difluoroethyl)-4-fluorophenyl)ethane-1,2-diol]
< 1000	CC(C)(O)c1ncc(-c2ccc3ncc(Cl)c(NC(CF)c4ccccc4F)c3c2)cn1 (racemic) [Example 10, 2-(5-(3-chloro-4-((2-fluoro-1-(2-fluorophenyl)ethyl)amino)quinolin-6-yl)pyrimidin-2-yl)propan-2-ol]
1000 to 10000	CCCC(C)C(N)c1c(Cl)c(C)nc2ccc(-c3cnc(C(C)(C)O)nc3)cc12 (single isomer, unassigned) [Example 357, 2-(5-(4-(1-amino-2-methylpentyl)-3-chloro-2-methylquinolin-6-yl)pyrimidin-2-yl)propan-2-ol]
1000 to 10000	CC(Nc1c(Cl)cnc2ccc(-c3ccc(C(C)(C)O)cc3)cc12)c1ccn(C)n1 (racemic) [Example 200, 2-(4-(3-chloro-4-((1-(1-methyl-1H-pyrazol-3-yl)ethyl)amino)quinolin-6-yl)phenyl)propan-2-ol]
